Assay results: patent US20230357233A1, “HETEROARYL COMPOUNDS, PREPARATION METHODS AND USES THEREOF” (INVENTISBIO CO., LTD., priority 2020, published 2023)

Experiments:
[1] = molecular target: recombinant human KRAS^G12D protein (Homo sapiens, UniProt P01116, G12D); experiment: Temperature-dependent Fluorescence (TdF) KRAS^G12D protein binding assay; conditions: 6 μM KRAS^G12D Protein, 10 μM compound, Sypro Orange; Kd calculated from fluorescent shift
Description: The TdF assay was conducted in the 96-well-based real-time fluorescence plate reader (ABI 7500 or Roche LightCycler 480). Fluorescent dye Sypro Orange (Sigma) was used to monitor the protein folding-unfolding transition. Protein-compound binding was gauged by the shift in the unfolding transition temperature (ΔTm) acquired with and without compound. […] The sample plate was heated from 30° C. to 95° C. with a thermal ramping rate of […], taking a fluorescence reading every 0.4° C. using a CY3 channel matching the excitation and emission wavelengths of Sypro Orange (λ ex 470 nm; λ em 570 nm). Binding affinity (Kd value) was calculated based on the degree of fluorescent shift of the protein with and without compound.

Ba/F3_KRAS^G12D cells = Ba/F3_KRAS^G12D cells (Homo sapiens, UniProt P01116, G12D, cells depend on it); experiment: Ba/F3 KRAS^G12D cell proliferation assay (cell-titer Glo); format: cell-based; conditions: cell growth inhibition, treated with the compounds for 3 days, read-out: BaF3_KRAS^G12D IC50
Description: Cells were seeded at a density of 5×10^3 per well into 96-well plate and incubated overnight. Serial diluted compounds were added to each well. Cells were treated with the compounds for 3 days, after which cell-titer Glo reagent (Promega #G7572) was used to assess cell proliferation. The luminescence signal was then collected on Tecan Spark plate reader. […] Cell growth inhibition of IC50 is calculated with the equation of Y=Bottom+(Top−Bottom)/(1+10^((LogIC50−X)*HillSlope))

Chain of Ba/F3_KRAS^G12D cells (P01116 whole entry G12D): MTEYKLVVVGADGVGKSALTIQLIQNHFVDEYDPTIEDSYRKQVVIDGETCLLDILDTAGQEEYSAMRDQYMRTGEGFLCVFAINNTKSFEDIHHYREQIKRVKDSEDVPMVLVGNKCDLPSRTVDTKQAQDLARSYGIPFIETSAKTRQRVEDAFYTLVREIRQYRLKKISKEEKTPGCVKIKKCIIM
Chain of recombinant human KRAS^G12D protein (P01116 1-188 isoform P01116-2 G12D): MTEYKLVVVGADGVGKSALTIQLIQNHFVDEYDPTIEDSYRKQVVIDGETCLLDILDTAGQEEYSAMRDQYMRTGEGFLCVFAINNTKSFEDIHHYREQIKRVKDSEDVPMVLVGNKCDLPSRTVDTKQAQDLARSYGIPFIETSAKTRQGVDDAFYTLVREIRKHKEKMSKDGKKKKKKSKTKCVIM

| Structure (SMILES) | Kd [1] | GI50 (Ba/F3_KRAS^G12D cells) |
| --- | --- | --- |
| C[C@H]1CNCCN1c1nc(OCCN(C)C)c(-c2cccnc2C2CC2)c2nc(-c3ccccc3F)c(F)cc12 [Compound 1] | > 5 µM | 0.5 to 5 µM |
| Clc1cc2c(N3CC4CCC(C3)N4)nc(OCC34CCCN3CCC4)nc2nc1-c1cccc2ccccc12 [Compound 2] | > 5 µM | > 5 µM |
| CN(C)CCCOc1nc(N2CC3CCC(C2)N3)c2cc(Cl)c(-c3cccc4ccccc34)nc2n1 [Compound 4] | > 5 µM | > 5 µM |
| Oc1cc(-c2nc3nc(OCC45CCCN4CCC5)nc(N4CC5CCC(C4)N5)c3cc2Cl)c2ccccc2c1 [Compound 10] | > 5 µM | > 5 µM |
| Nc1cccc(F)c1-c1nc2nc(OCC34CCCN3CCC4)nc(N3CC4CCC(C3)N4)c2cc1Cl [Compound 11] | > 5 µM | > 5 µM |
| Oc1cc(-c2ncc3c(N4CC5CCC(C4)N5)nc(OCC45CCCN4CCC5)nc3c2F)c2ccccc2c1 [Compound 12] | ≤ 0.5 µM | 0.5 to 5 µM |
| C[C@H]1CNCCN1c1nc(OCCN(C)C)cc2nc(-c3ccccc3F)c(F)cc12 [Compound 13] | > 5 µM | 0.5 to 5 µM |
| Fc1cc2c(N3CC4CCC(C3)N4)nc(OCC34CCCN3CCC4)cc2nc1-c1cccc2ccccc12 [Compound 14] | > 5 µM | 0.5 to 5 µM |
| CN(C)CCCOc1nc(N2CC3CCC(C2)N3)c2cc(F)c(-c3cccc4cccc(Cl)c34)nc2n1 [Compound 15] | > 5 µM | > 5 µM |
| Fc1ccccc1-c1nc2cc(OCC34CCCN3CCC4)nc(N3CC4CCC(C3)N4)c2cc1F [Compound 16] | > 5 µM | 0.5 to 5 µM |
| CN(C)CCOc1nc(N2C3CCC2CNC3)c2cc(F)c(-c3ccccc3F)nc2c1-c1cccnc1C1CC1 [Compound 20] | > 5 µM | 0.5 to 5 µM |
| c1ccc2c(-c3ncc4c(N5CC6CCC(C5)N6)nc(OCC56CCCN5CCC6)cc4n3)cccc2c1 [Compound 21] | > 5 µM | 0.5 to 5 µM |
| Nc1cccc(F)c1-c1ncc2c(N3CCNCC3)nc(OCC34CCCN3CCC4)cc2n1 [Compound 22] | > 5 µM | > 5 µM |
| CN(C)CCCOc1cc2nc(-c3cccc4ccccc34)ncc2c(N2CC3CCC(C2)N3)n1 [Compound 23] | > 5 µM | 0.5 to 5 µM |
| CN(C)CCOc1nc(N2CCNCC2)c2cc(F)c(-c3ccccc3F)nc2c1-c1cccnc1C1CC1 [Compound 24] | > 5 µM | 0.5 to 5 µM |
| CN(C)CCCOc1nc(N2CC3CCC(C2)N3)c2cnc(-c3cccc4ccccc34)nc2c1Cl [Compound 25] | > 5 µM | 0.5 to 5 µM |
| Nc1cccc(F)c1-c1ncc2c(N3CC4CCC(C3)N4)nc(OCC34CCCN3CCC4)cc2n1 [Compound 26] | > 5 µM | > 5 µM |

| Structure (SMILES) | Kd [1] | GI50 (Ba/F3_KRAS^G12D cells) |
| --- | --- | --- |
| CN(C)CCOc1nc(N2CC3CCC(C2)N3)c2cc(F)c(-c3ccccc3F)nc2c1-c1cccnc1C1CC1 [Compound 27] | > 5 µM | 0.5 to 5 µM |
| Fc1ccccc1-c1nc2c(-c3cccnc3C3CC3)c(OCC34CCCN3CCC4)nc(N3CC4CCC(C3)N4)c2cc1F [Compound 28] | > 5 µM | 0.5 to 5 µM |
| C[C@H]1CNCCN1c1nc(OCCN(C)C)c(-c2cccnc2C2CC2)c2nc(-c3cccc4ccccc34)c(F)cc12 [Compound 29] | > 5 µM | 0.5 to 5 µM |
| Oc1cc(-c2ncc3c(N4CC5CCC(C4)N5)nc(OCC45CCCN4CCC5)nc3c2F)c2c(Cl)cccc2c1 [Compound 32] | ≤ 0.5 µM | < 0.5 µM |
| Oc1cc(-c2nc3cc(OCC45CCCN4CCC5)nc(N4CC5CCC(C4)N5)c3cc2Cl)c2c(Cl)cccc2c1 [Compound 34] | > 5 µM | > 5 µM |
| Oc1cc(-c2ncc3c(N4CC5CCC(C4)N5)nc(OC[C@@]45CCCN4C[C@H](F)C5)nc3c2F)c2c(Cl)cccc2c1 [Compound 36] | ≤ 0.5 µM | < 0.5 µM |
| Nc1cccc(F)c1-c1nc2cc(OCC34CCCN3CCC4)nc(N3CC4CCC(C3)N4)c2cc1Cl [Compound 37] | > 5 µM | > 5 µM |
| CCN1CCN(c2nc(OCC34CCCN3CCC4)nc3c(F)c(-c4cc(O)cc5cccc(Cl)c45)ncc23)CC1 [Compound 42] | > 5 µM | 0.5 to 5 µM |
| Oc1cc(-c2nc3cc(OC[C@@]45CCCN4C[C@H](F)C5)nc(N4CC5CCC(C4)N5)c3cc2Cl)c2c(Cl)cccc2c1 [Compound 43] | > 5 µM | 0.5 to 5 µM |
| Clc1cccc2cccc(-c3ncc4c(N5CC6CCC(C5)N6)nc(OCC56CCCN5CCC6)cc4n3)c12 [Compound 46] | > 5 µM | 0.5 to 5 µM |
| C#Cc1c(F)ccc2cc(O)cc(-c3nc(O)c4c(N5CC6CCC(C5)N6)nc(OC[C@]56CCCN5[C@@H](COC(=O)N(C)C)CC6)nc4c3F)c12 [Compound 239] | – | 0.5 to 5 µM |
| C#Cc1c(F)ccc2cc(O)cc(-c3nc(OC(C)C)c4c(N5CCNC6(CC6)C5)nc(OC[C@@]56CCCN5C[C@H](F)C6)nc4c3F)c12 [Compound 241] | – | < 0.5 µM |
| C#Cc1c(F)ccc2cc(O)cc(-c3nc(OC(C)C)c4c(N5CCNC(CF)C5)nc(OC[C@@]56CCCN5C[C@H](F)C6)nc4c3F)c12 (stereo partly drawn) [Compound 242] | – | < 0.5 µM |
| C#Cc1c(F)ccc2cc(O)cc(-c3nc(OC)c4c(N5CC6CCC(C5)N6)nc(OC[C@]56CCCN5[C@@H](COC(=O)N(C)CCCCCCCCCCCCCCCC)CC6)nc4c3F)c12 [Compound 243] | – | < 0.5 µM |
| C#Cc1c(F)ccc2cccc(-c3nc(OC(C)C)c4c(N5CC6CCC(C5)N6)nc(OC[C@]56CCCN5[C@@H](COC(=O)N5CCOCC5)CC6)nc4c3F)c12 [Compound 245] | – | < 0.5 µM |
| C#Cc1c(F)ccc2cccc(-c3nc(OC(C)C)c4c(N5CC6CCC(C5)N6)nc(OC[C@@H]5C[C@@H](OC(=O)N(C)CCCCCCCCCCCCCCCC)CN5C)nc4c3F)c12 [Compound 246] | – | 0.5 to 5 µM |
| C#Cc1c(F)ccc2cccc(-c3nc(OC)c4c(N5CCNCC(F)(F)C5)nc(OC[C@]56CCCN5[C@@H](COC(=O)N(C)C)CC6)nc4c3F)c12 [Compound 247] | – | 0.5 to 5 µM |

Next, values leading:

| Kd [1] | GI50 (Ba/F3_KRAS^G12D cells) | Structure (SMILES) |
| --- | --- | --- |
| > 5 µM | > 5 µM | Clc1cc2c(N3CCNCC3)nc(OCC34CCCN3CCC4)nc2nc1-c1cccc2ccccc12 [Compound 3] |
| > 5 µM | > 5 µM | Fc1cc2c(N3CCNCC3)nc(OCC34CCCN3CCC4)nc2nc1-c1cccc2cccc(Cl)c12 [Compound 5] |
| ≤ 0.5 µM | < 0.5 µM | Fc1c(-c2cccc3cccc(Cl)c23)ncc2c(N3CC4CCC(C3)N4)nc(OCC34CCCN3CCC4)nc12 [Compound 6] |
| > 5 µM | > 5 µM | Fc1cc2c(N3CC4CCC(C3)N4)nc(OCC34CCCN3CCC4)nc2nc1-c1cccc2cccc(Cl)c12 [Compound 7] |
| > 5 µM | 0.5 to 5 µM | CN1CCC[C@H]1COc1nc(N2CC3CCC(C2)N3)c2cc(F)c(-c3cccc4cccc(Cl)c34)nc2n1 [Compound 8] |
| > 5 µM | > 5 µM | Fc1cc2c(N3C4CCC3CNC4)nc(OCC34CCCN3CCC4)nc2nc1-c1cccc2cccc(Cl)c12 [Compound 9] |
| > 5 µM | > 5 µM | CN(C)CCCn1c(=O)nc(N2CC3CCC(C2)N3)c2cnc(-c3cccc4cccc(Cl)c34)c(F)c21 [Compound 17] |
| > 5 µM | 0.5 to 5 µM | c1ccc2c(-c3ncc4c(N5CCNCC5)nc(OCC56CCCN5CCC6)cc4n3)cccc2c1 [Compound 18] |
| > 5 µM | > 5 µM | CN(C)CCCn1c(=O)nc(N2CC3CCC(C2)N3)c2cc(F)c(-c3cccc4cccc(Cl)c34)nc21 [Compound 19] |
| ≤ 0.5 µM | < 0.5 µM | Fc1c(-c2cccc3cccc(Cl)c23)ncc2c(N3CC4CCC(C3)N4)nc(OC[C@@]34CCCN3C[C@H](F)C4)nc12 [Compound 30] |
| > 5 µM | 0.5 to 5 µM | Fc1c(-c2cccc3cccc(Cl)c23)nc(OCC23CCCN2CCC3)c2ccc(N3CCNCC3)nc12 [Compound 31] |
| > 5 µM | > 5 µM | CN1CCC[C@H]1Cn1c(=O)nc(N2CC3CCC(C2)N3)c2cnc(-c3cccc4cccc(Cl)c34)c(F)c21 [Compound 33] |
| > 5 µM | > 5 µM | CN1CCC[C@H]1Cn1c(=O)nc(N2CCNCC2)c2cnc(-c3cccc4cccc(Cl)c34)c(F)c21 [Compound 35] |
| > 5 µM | > 5 µM | CN1CCC[C@H]1Cn1c(=O)nc(N2CCNCC2)c2cc(F)c(-c3cccc4cccc(Cl)c34)nc21 [Compound 38] |
| > 5 µM | > 5 µM | CN1CCC[C@H]1Cn1c(=O)nc(N2CC3CCC(C2)N3)c2cc(F)c(-c3cc(O)cc4ccccc34)nc21 [Compound 39] |
| > 5 µM | > 5 µM | CN1CCC[C@H]1Cn1c(=O)nc(N2CC3CCC(C2)N3)c2cnc(-c3cc(O)cc4ccccc34)c(F)c21 [Compound 40] |
| > 5 µM | > 5 µM | CN1CCC[C@H]1Cn1c(=O)nc(N2CC3CCC(C2)N3)c2cc(F)c(-c3cc(O)cc4cccc(Cl)c34)nc21 [Compound 41] |
| > 5 µM | > 5 µM | CN1CCC[C@H]1Cn1c(=O)nc(N2CC3CCC(C2)N3)c2cnc(-c3cc(O)cc4cccc(Cl)c34)c(F)c21 [Compound 44] |
| > 5 µM | > 5 µM | CN1CCC[C@H]1Cn1c(=O)nc(N2C[C@H]3CC[C@@H](C2)N3)c2cc(F)c(-c3cccc4cccc(Cl)c34)nc21 [Compound 45] |
